Test results published in PubChem BioAssay (NCI).
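Five concentrations, 48 hours, 96-well plates. Here, GI50 denotes the concentration required for 50% inhibition of growth. The concentration for full growth arrest is given as TGI.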

Key:
Experiment in all cases: NCI tumour cell line growth inhibition, 48 h
[1] = tested on: EKVX NSCLC
[2] = tested on: TK-10 renal
[3] = tested on: A498 renal
[4] = tested on: NCI-H460 lung
[5] = tested on: CCRF-CEM leukemia
[6] = tested on: KM12 colon
[7] = tested on: COLO 205 colon
[8] = tested on: LOX IMVI melanoma
[9] = tested on: K-562 leukemia
[10] = tested on: SNB-75 CNS

SMILES | GI50 [1] | TGI [1] | GI50 [2] | TGI [2] | GI50 [3] | TGI [3] | GI50 [4] | TGI [4] | GI50 [5] | TGI [5] | GI50 [6] | TGI [6] | GI50 [7] | TGI [7] | GI50 [8] | TGI [8] | GI50 [9] | TGI [9] | TGI [10] | GI50 [10]
O=C(c1cccs1)c1c(C(F)(F)F)n([O-])c2cc(F)c(F)cc2[n+]1=O | 2.44 µM | 6.73 µM | 1.36 µM | 3.99 µM | 1.46 µM | 3.79 µM | 2.03 µM | 12.5 µM | 0.18 µM | 0.729 µM | 4.95 µM | 8.73 µM | 3.15 µM | 5.9 µM | 0.747 µM | 1.78 µM | 0.71 µM | 2.44 µM |  | 
NC1=C(c2nc(-c3cc4ccccc4oc3=O)cs2)C(c2ccco2)c2c(c3ccccc3oc2=O)O1 (configuration not stated) | 69.7 mg/L | > 150 mg/L | 46.4 mg/L | 87.6 mg/L | 66.1 mg/L | > 150 mg/L | > 150 mg/L | > 150 mg/L | 53.8 mg/L | 147 mg/L | > 150 mg/L | > 150 mg/L | > 150 mg/L | > 150 mg/L | > 150 mg/L | > 150 mg/L | 95.9 mg/L | > 150 mg/L |  | 
O=C1/C(=C\c2ccccc2)c2ccccc2N1Cc1ccccc1 |  | 17.1 µM |  | 17.4 µM |  |  |  | 19 µM |  | 12.6 µM |  | 13.9 µM |  | 33.3 µM |  | 17 µM |  | > 31.3 µM | 22.8 µM | 
CC(C)OCN1COCN=C1NC#N |  | > 100 µM |  | > 100 µM |  | > 100 µM |  | > 100 µM |  |  |  | > 100 µM |  | 47.9 µM |  |  |  | > 100 µM | > 100 µM | 
CCOC(=O)c1c(C)c2c(n1C)CSc1cc(S(=O)(=O)c3ccccc3)c(=O)[nH]c1-2 | 14.6 µM | 74.9 µM | 34.4 µM | > 100 µM |  |  | 25.7 µM | > 100 µM | 27.5 µM | > 100 µM | 28.8 µM | > 100 µM | 14.3 µM | 36.3 µM | 24.1 µM | > 100 µM | 14.6 µM | > 100 µM | > 100 µM | 42.7 µM
COC1OC(C)C(OC(=O)C(C)(C)C)C(C)(O)C1O (configuration not stated) |  |  |  | > 100 µM |  | > 100 µM |  | > 100 µM |  | > 100 µM |  | > 100 µM |  | > 100 µM |  | > 100 µM |  | > 100 µM |  | 
Cc1c2n(c3ccccc13)CC1C2N(C)OC1(C)C (configuration not stated) |  | > 100 µM |  |  |  |  |  | > 100 µM |  | > 100 µM |  | > 100 µM |  | > 100 µM |  |  |  | > 100 µM | > 100 µM | 
C[C@]12CC[C@@H]3c4ccc(O)cc4CC[C@H]3[C@@H]1CC[C@@H]2NS(=O)(=O)c1cccc(Br)c1 |  |  | 3.43 µM | 12.1 µM | 1.8 µM | 8.45 µM | 2.53 µM | 6.67 µM | 3.06 µM | 20.3 µM | 2.31 µM | 6.76 µM | 1.89 µM | 3.38 µM | 3.13 µM | 11.6 µM | 3.59 µM | 14.8 µM | 13.5 µM | 2.9 µM
CC1=CC(C)C(O)C(C)/C=C/C(O)C/C=C(/C)C(=O)CC(O)C(C)\C=C/C=C/C=C\C(=O)NC2=C(O)c3cc(C)c(O)c(c3C(=O)C2=O)C1=O (configuration not stated) |  | > 100 µM |  | > 100 µM |  |  |  | > 100 µM |  | > 100 µM |  | > 100 µM |  | > 100 µM |  | > 100 µM |  |  | > 100 µM | 
CCCCCCCCCCCCCCCCCC(=O)NCCCNCCCNC(=O)CCCCCCCCCCCCCCCCC |  |  |  | > 100 µM |  | > 100 µM |  | > 100 µM |  | > 100 µM |  |  |  | > 100 µM |  | > 100 µM |  | > 100 µM |  | 
COc1ccc2cc(C(=O)/C=C/c3ccc(OC)c(OC)c3)ccc2c1 | 22 µM | 68.4 µM | 53.1 µM | > 100 µM |  |  | 7.38 µM | > 100 µM |  |  | 4.82 µM | 32.1 µM | 30.7 µM | 73.5 µM | 3.38 µM | > 100 µM | 5 µM | 94.9 µM |  | 
Cc1ccccc1NC(=O)C(=O)Cc1nc2ccccc2s1 |  |  |  | > 100 µM |  | > 100 µM |  | > 100 µM |  | > 100 µM |  | > 100 µM |  | > 100 µM |  | > 100 µM |  | > 100 µM | > 100 µM | 
Oc1cccc(C2SCc3nc4ccccc4n32)c1 (configuration not stated) |  | > 100 µM |  | > 100 µM |  | > 100 µM |  | > 100 µM |  | > 100 µM |  | > 100 µM |  | > 100 µM |  |  |  | > 100 µM | > 100 µM | 
N#Cc1cccc(Nc2nccc(-c3cnn4ncccc34)n2)c1 |  |  | 0.00603 µM | 0.0172 µM | 0.00371 µM | 0.0091 µM | 0.00837 µM | > 25 µM | 0.006 µM | > 25 µM | 0.00632 µM | 0.0263 µM | 0.00295 µM | 0.00663 µM | 0.00279 µM | > 8.75 µM | 0.00782 µM | > 25 µM | 0.012 µM | 0.00494 µM
COc1cc2c(cc1OC)-c1c(cc(OC)c(OC)c1OC)C2=O |  | > 100 µM |  | > 100 µM |  |  |  | > 100 µM |  | > 100 µM |  | > 100 µM |  | > 100 µM |  | > 100 µM |  | > 100 µM | 95.5 µM | 
O=C(N/N=C/c1cc2ccccc2c2ccccc12)c1cc(O)c(O)c(O)c1 |  |  | 4.48 µM | 30.7 µM | 13.3 µM | 27 µM | 3.8 µM | 18 µM | 2.87 µM | > 100 µM | 8.24 µM | 22.9 µM | 3.14 µM | 10.9 µM | 2.38 µM | 5.98 µM | 3.57 µM | 51 µM | 14.3 µM | 2.1 µM
COCCOC(C)C(/C=N/NC(N)=S)=N/NC(N)=S (configuration not stated) | 0.0905 µM | > 100 µM | > 100 µM | > 100 µM | > 100 µM | > 100 µM | > 100 µM | > 100 µM |  |  | > 100 µM | > 100 µM | > 100 µM | > 100 µM |  | > 100 µM | 0.0574 µM | > 100 µM | > 100 µM | > 100 µM
N/C(=N\C(=S)N1CCCCC1)N1CCCCC1 |  | > 100 µM |  | > 100 µM |  | > 100 µM |  | > 100 µM |  | > 100 µM |  | > 100 µM |  |  |  | > 100 µM |  | > 100 µM | > 100 µM | 
